PMC11378297, “Discovery and Profiling of New Multimodal Phenylglycinamide Derivatives as Potent Antiseizure and Antinociceptive Drug Candidates” (ACS Chemical Neuroscience, 2024)
Like-named read-outs stand apart in the source and are kept apart here. Marks after values point to notes of the source that are not given here.

Columns and labels:
[1] = test system: 6 Hz (32 mA) seizures, mice; conditions: i.p., cited from earlier work
[2] = test system: 6 Hz (44 mA) seizures, mice; conditions: i.p., cited from earlier work
[3] = test system: maximal electroshock (MES) seizures, mice; conditions: i.p., cited from earlier work
[4] = test system: mice (motor coordination); conditions: racemates, chimney test, i.p.; cited from earlier work
[5] = test system: glutamate and GABA concentrations in brain; assay: glutamate and GABA concentrations in hippocampus and cortex of PTZ-kindled mice; assay type: in vivo, mouse
Excerpt: After behavioral tests (FST, PTZ-induced kindling), we determined the changes in glutamate and GABA concentrations in the hippocampus and cortex. Since exposure to the FST can evoke various neurochemical alterations, two additional groups were employed in this experiment, i.e., control nonkindled mice that were exposed to the FST and naïve mice. No marked differences in both glutamate and GABA concentrations in the hippocampus were observed (Figure 5A). […] We found a significant increase in glutamate concentration in the cortex of mice subjected to the FST (p < 0.05 vs naive mice). […] Given that seizures are typically accompanied by elevated extracellular glutamate levels (an excitatory neurotransmitter), a decreased glutamate concentration in the cortex of kindled animals may appear to be an unexpected outcome. It should be highlighted, however, that the concentrations of glutamate and GABA in tissue homogenates rather than dialysate were measured in brain samples acquired 24 h following the previous PTZ dose, which may have an impact on the outcomes. On the other hand, decreased glutamate levels could be caused by the up-regulation of glutamate transporters, as the expression of glutamate transporters can increase following seizures.[48] For example, an increased expression of hippocampal GLT-1 was observed 24 h after kainic acid-induced status epilepticus in mice and PTZ-induced kindling in rats.[49] Moreover, similar to our findings, Szyndler et al.([50]) found decreased glutamate concentrations, with no changes in GABA concentrations, in homogenates of the hippocampus, striatum, and prefrontal cortex of PTZ-kindled rats.
Figure 5 Changes in glutamate and GABA concentrations in the hippocampus (A) and cortex (B). Data are shown as means + SD (n = 9–14 animals). Statistical significance was evaluated by one-way ANOVA followed by Tukey’s post hoc test: *p < 0.05, **p < 0.01, ***p < 0.001 (GraphPad Prism 8.4.3).
GABA and glutamate concentrations were determined using liquid chromatography tandem mass spectrometry (LC-MS/MS) in the mouse prefrontal cortex and hippocampus. Toronto Research Chemicals Inc. was the source of the standards for both analytes (Toronto, ON, Canada). GABA and glutamate stock standard solutions were made in methanol and deionized water, respectively, and kept cold at 4 °C. The stock solutions were suitably diluted to create a range of solution combinations with the appropriate concentrations. Prior to analysis, a hand-held pestle and glass tube homogenizer (Potter–Elvehjem PTFE pestle and glass tube, Sigma-Aldrich, St. Louis, MO, USA) were used to homogenize mouse brains in distilled water at a ratio of 50 μL/mg. Following a 10 min centrifugation at 8000g for 10 min at 4 °C, homogenates were diluted 10 times with 0.1% formic acid in MeCN from the supernatant. Samples (10 μL) were deproteinized with 80 μL of 0.1% formic acid in MeCN by shaking for 10 min (IKA Vibrax VXR, IKA Werke GmbH & Co. KG, Staufen im Breisgau, Germany) and centrifuged for 5 min at the speed of 8000g (Eppendorf miniSpin centrifuge) after isotope-labeled GABA-d6 and glutamate-d5 (Toronto Research Chemicals Inc., Toronto, ON, Canada) were added as internal standards (10 μL at the concentration of 500 ng/mL). The autosampler vials were filled with the acquired supernatants. […]

[6] = test system: formalin-induced pain, mice; parameters: method as in PMID 28934547; conditions: previously tested in the authors' laboratory; cited from earlier work
[7] = test system: capsaicin-induced pain, mice; parameters: method as in PMID 28934547; conditions: 200 mg/kg; cited from earlier work
[8] = test system: PTZ-induced kindling, mice; assay: PTZ-induced kindling model; assay type: in vivo, mouse; conditions: 150 mg/kg i.p. repeatedly, positive control
Description: We investigated the impact of lead compound (R)-32 on PTZ-induced kindling in mice to further assess its antiseizure potential (Figure 3). […] The PTZ-induced kindling model is widely recognized as a useful method to induce chronic increase in susceptibility to epileptic seizures.
Figure 3 Effect of repeated treatment with (R)-32 in PTZ-induced kindling model in mice. […] Data are presented as means of seizure severity (n = 10–15 animals). Statistical significance was evaluated by a mixed effects model for repeated measures followed by Tukey’s post hoc test: **p < 0.01, […] vs control group (GraphPad Prism 8.4.3).
The procedure was performed as described in detail in our previous studies.[88],[89] […] Seizures were induced three times a week by i.p. administration of PTZ at a subconvulsive dose of 40 mg/kg. […] The seizure severity was scored using the modified Racine’s scale. […] The locomotor activity test, the elevated plus maze test, and the FST were performed 24 h after the last PTZ injection, according to the methods described in detail elsewhere. After completion of behavioral tests, animals were sacrificed. Hippocampi and cortices were dissected from the brains, frozen, and stored at −80 °C until assay. Following each PTZ injection, the mean seizure severity scores were determined for each experimental group. A mixed effects model for repeated measurements was used for analysis, along with Tukey’s post hoc test. The percentage of fully kindled mice was compared using Fisher’s exact probability test.

[9] = test system: mature-BDNF (mBDNF) expression; assay: mBDNF expression in hippocampus and cortex of PTZ-kindled mice (Western blot); assay type: in vivo, mouse; conditions: VPA repeated (150 mg/kg), p < 0.01 vs PTZ kindling control
Excerpt: However, there are also few reports showing opposite findings.[51],[52] […] No changes in the expression of the nerve growth factor (NGF) were observed (Figure 6D–F).
Figure 6 Changes in mature-BDNF (mBDNF) expression in hippocampus (A) and cortex (C) and in proNGF expression in hippocampus (D) and cortex (F) with representative immunoblots, together with total protein amount visualized by the stain-free technique (B,E). Data are shown as means of relative expressions + SD (n = 8). Statistical significance was evaluated by one-way ANOVA followed by Tukey’s post hoc test: **p < 0.01 (GraphPad Prism 8.4.3).
The Western Blot method was used to assess the expression of proNGF and mBDNF in the mouse brain and hippocampal tissues. Using a bead homogenizer (Bead Ruptor Elite, Omni International, USA), the cortical and hippocampal regions of the mouse brain were weighted and homogenized at a ratio of 9 μL/mg in 2% SDS supplemented with a cocktail of protease (Thermo Scientific, Walthman, MA, USA) and phosphatase inhibitors (Sigma-Aldrich, St. Louis, MO, USA). Samples were then centrifuged at 10,000g for 10 min at 4 °C after being denatured for 10 min at 95 °C. […] One-way ANOVA with Tukey’s post hoc test was utilized to examine changes in the relative expression of the proteins that were evaluated.

[10] = hepatotoxicity, HepG2 cell viability; assay type: cell-based, human; conditions: human, HepG2 hepatoma cells; 1 μM, 72 h of incubation (Figure 11)
Description: The hepatotoxicity potential was assessed with the HepG2 cell line and the reference cytostatic drug doxorubicin.
The results are presented as means + SD. Statistical significance was evaluated by one-way ANOVA, followed by Bonferroni’s multiple comparison post hoc test (Graph Pad Prism 8.0.1 software, San Diego, CA, USA): *p < 0.05, ***p < 0.001, ****p < 0.0001 vs negative control (DMSO 1% in growth media).

[11] = test system: mice (motor coordination); conditions: reference ASMs, rotarod test, i.p.; cited from earlier work
[12] = racemates, pretreatment time 0.5 h
[13] = reference ASMs, pretreatment time 0.5 h (LCS, VPA) or 1.0 h (LEV, CBD)

For `CC(=O)NC(C(=O)N1CCN(c2cccc(C(F)(F)F)c2)CC1)c1ccccc1` (stereo not drawn) [KJ-5], the “ED50 6 Hz (32 mA)” value [1, 12] is listed as 29.9 mg/kg, the “ED50 6 Hz (44 mA)” value [2, 12] is listed as 68.0 mg/kg and the “ED50 MES” value [3, 12] is listed as 89.7 mg/kg. The TD50 [4] was 179.7 ^b mg/kg.

For `CCCC(CCC)C(=O)O` [VPA, valproic acid, reference compound], the “GABA concentration in the cortex” value ([5]; 150 mg/kg, p < 0.05 vs PTZ-kindled control group) is listed as “significantly decreased”, the “glutamate concentration in the hippocampus” value ([5]; vs nonkindled FST control group) is listed as “slight decrease” and the “ED50 6 Hz (32 mA)” value [1, 13] is listed as 130.6 mg/kg. The “ED50 in the late phase of the formalin test” value [6] was 132.9 mg/kg, the “activity in capsaicin-induced pain” value [7] was “active only at the highest administered dose” and the “effect on kindling progression” value [8] was “suppressed kindling progression”. For the same compound, the “mBDNF protein expression in the hippocampus (PTZ kindling-induced overexpression)” value [9] was “reversed the overexpression”.

Compound `COc1cccc2c1C(=O)c1c(O)c3c(c(O)c1C2=O)C[C@@](O)(C(=O)CO)C[C@@H]3O[C@H]1C[C@H](N)[C@H](O)[C@H](C)O1` [doxorubicin, reference compound] has a viability at 72 h, 1 µM [10] of about 20%.

For `CC[C@@H](C(N)=O)N1CCCC1=O` [LEV, levetiracetam], the TD50 [11] is listed as >500 ^c mg/kg, the “ED50 6 Hz (44 mA)” value [2, 13] is listed as 204.0 mg/kg and the “ED50 MES” value ([3]; reference ASMs, pretreatment time 0.5 h (LCS, VPA) or 1.0 h (LEV, CBD), literature or own experiments) is listed as over 500 mg/kg.
